{
  "source": "ChEMBL document CHEMBL1201862",
  "about": "“PubChem BioAssay data set” (2004)",
  "test_in_all_cases": "NCI tumour cell line growth inhibition, 48 h",
  "key": {"[1]": {"tested_on": "A549"}, "[2]": {"tested_on": "CAKI-1"}, "[3]": {"tested_on": "EKVX"}, "[4]": {"tested_on": "HOP-62"}, "[5]": {"tested_on": "HT-29"}, "[6]": {"tested_on": "K562"}, "[7]": {"tested_on": "LOX IMVI"}, "[8]": {"tested_on": "M14"}, "[9]": {"tested_on": "MCF7"}, "[10]": {"tested_on": "MDA-MB-231"}, "[11]": {"tested_on": "NCI-H522"}, "[12]": {"tested_on": "OVCAR-4"}, "[13]": {"tested_on": "OVCAR-5"}, "[14]": {"tested_on": "OVCAR-8"}, "[15]": {"tested_on": "RPMI-8226"}, "[16]": {"tested_on": "SF-539"}, "[17]": {"tested_on": "SK-MEL-5"}, "[18]": {"tested_on": "SK-OV-3"}, "[19]": {"tested_on": "SNB-75"}, "[20]": {"tested_on": "UACC-257"}},
  "note": "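In this assay, cells in 96-well plates receive the compound at five concentrations for 48 hours. Endpoints are linearly interpolated between the surrounding concentrations. Abbreviation: GI50, concentration required for 50% inhibition of growth.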 Activity calls are given as the source filed them. No stated cut-off is given here; in the data, active = GI50 up to about 1.1 µM and inactive = higher.",
  "data": [
    {"compound": "Cc1nccn1S(=O)(=O)c1ccc(Cl)cc1", "values": [
      {"measurement": "GI50", "setting": "[1]", "result": "> 100 µM (inactive)"},
      {"measurement": "GI50", "setting": "[2]", "result": "42 µM (inactive)"},
      {"measurement": "GI50", "setting": "[3]", "result": "31.3 µM (inactive)"},
      {"measurement": "GI50", "setting": "[4]", "result": "58.2 µM (inactive)"},
      {"measurement": "GI50", "setting": "[5]", "result": "35 µM (inactive)"},
      {"measurement": "GI50", "setting": "[6]", "result": "37.8 µM (inactive)"},
      {"measurement": "GI50", "setting": "[7]", "result": "41.5 µM (inactive)"},
      {"measurement": "GI50", "setting": "[8]", "result": "41.7 µM (inactive)"},
      {"measurement": "GI50", "setting": "[9]", "result": "45 µM (inactive)"},
      {"measurement": "GI50", "setting": "[10]", "result": "31.9 µM (inactive)"},
      {"measurement": "GI50", "setting": "[11]", "result": "27.9 µM (inactive)"},
      {"measurement": "GI50", "setting": "[12]", "result": "29.5 µM (inactive)"},
      {"measurement": "GI50", "setting": "[13]", "result": "64.6 µM (inactive)"},
      {"measurement": "GI50", "setting": "[14]", "result": "59.2 µM (inactive)"},
      {"measurement": "GI50", "setting": "[15]", "result": "48.6 µM (inactive)"},
      {"measurement": "GI50", "setting": "[16]", "result": "32.7 µM (inactive)"},
      {"measurement": "GI50", "setting": "[17]", "result": "37.4 µM (inactive)"},
      {"measurement": "GI50", "setting": "[18]", "result": "87.5 µM (inactive)"},
      {"measurement": "GI50", "setting": "[19]", "result": "57 µM (inactive)"},
      {"measurement": "GI50", "setting": "[20]", "result": "42.5 µM (inactive)"}
    ]},
    {"compound": "N#Cc1cnn2ccn(C3OC(COC(=O)c4ccccc4)C(OC(=O)c4ccccc4)C3OC(=O)c3ccccc3)c12", "note": "(stereo not given)", "values": [
      {"measurement": "GI50", "setting": "[1]", "result": "> 21.5 µM (inactive)"},
      {"measurement": "GI50", "setting": "[2]", "result": "17.2 µM (inactive)"},
      {"measurement": "GI50", "setting": "[3]", "result": "> 21.5 µM (inactive)"},
      {"measurement": "GI50", "setting": "[4]", "result": "> 21.5 µM (inactive)"},
      {"measurement": "GI50", "setting": "[5]", "result": "> 21.5 µM (inactive)"},
      {"measurement": "GI50", "setting": "[6]", "result": "> 21.5 µM (inactive)"},
      {"measurement": "GI50", "setting": "[7]", "result": "> 31.6 µM (inactive)"},
      {"measurement": "GI50", "setting": "[8]", "result": "> 21.5 µM (inactive)"},
      {"measurement": "GI50", "setting": "[9]", "result": "> 46.5 µM (inactive)"},
      {"measurement": "GI50", "setting": "[10]", "result": "> 21.5 µM (inactive)"},
      {"measurement": "GI50", "setting": "[11]", "result": "> 21.5 µM (inactive)"},
      {"measurement": "GI50", "setting": "[12]", "result": "> 21.5 µM (inactive)"},
      {"measurement": "GI50", "setting": "[13]", "result": "> 21.5 µM (inactive)"},
      {"measurement": "GI50", "setting": "[14]", "result": "> 46.5 µM (inactive)"},
      {"measurement": "GI50", "setting": "[15]", "result": "> 21.5 µM (inactive)"},
      {"measurement": "GI50", "setting": "[16]", "result": "> 21.5 µM (inactive)"},
      {"measurement": "GI50", "setting": "[17]", "result": "> 21.5 µM (inactive)"},
      {"measurement": "GI50", "setting": "[18]", "result": "> 21.5 µM (inactive)"},
      {"measurement": "GI50", "setting": "[19]", "result": "1 µM (active)"},
      {"measurement": "GI50", "setting": "[20]", "result": "> 21.5 µM (inactive)"}
    ]},
    {"compound": "NC(=O)CC(N)C(=O)NC(Cc1ccccc1)C(=O)NC(Cc1ccccc1)NC(=O)C(Cc1c[nH]c2ccccc12)C(=O)O", "note": "(stereo not given)", "values": [
      {"measurement": "GI50", "setting": "[1]", "result": "> 100 µM (inactive)"},
      {"measurement": "GI50", "setting": "[2]", "result": "> 100 µM (inactive)"},
      {"measurement": "GI50", "setting": "[3]", "result": "> 100 µM (inactive)"},
      {"measurement": "GI50", "setting": "[4]", "result": "> 100 µM (inactive)"},
      {"measurement": "GI50", "setting": "[5]", "result": "> 100 µM (inactive)"},
      {"measurement": "GI50", "setting": "[6]", "result": "> 100 µM (inactive)"},
      {"measurement": "GI50", "setting": "[7]", "result": "> 100 µM (inactive)"},
      {"measurement": "GI50", "setting": "[8]", "result": "> 100 µM (inactive)"},
      {"measurement": "GI50", "setting": "[9]", "result": "> 100 µM (inactive)"},
      {"measurement": "GI50", "setting": "[10]", "result": "> 100 µM (inactive)"},
      {"measurement": "GI50", "setting": "[11]", "result": "> 100 µM (inactive)"},
      {"measurement": "GI50", "setting": "[12]", "result": "> 100 µM (inactive)"},
      {"measurement": "GI50", "setting": "[13]", "result": "> 100 µM (inactive)"},
      {"measurement": "GI50", "setting": "[14]", "result": "> 100 µM (inactive)"},
      {"measurement": "GI50", "setting": "[15]", "result": "> 100 µM (inactive)"},
      {"measurement": "GI50", "setting": "[16]", "result": "> 100 µM (inactive)"},
      {"measurement": "GI50", "setting": "[17]", "result": "49.4 µM (inactive)"},
      {"measurement": "GI50", "setting": "[18]", "result": "> 100 µM (inactive)"},
      {"measurement": "GI50", "setting": "[19]", "result": "71.8 µM (inactive)"},
      {"measurement": "GI50", "setting": "[20]", "result": "> 100 µM (inactive)"}
    ]},
    {"compound": "O=C1Nc2c(Cl)cccc2/C1=N/Nc1ccccc1[N+](=O)[O-]", "values": [
      {"measurement": "GI50", "setting": "[1]", "result": "21.8 µM (inactive)"},
      {"measurement": "GI50", "setting": "[2]", "result": "11.7 µM (inactive)"},
      {"measurement": "GI50", "setting": "[3]", "result": "3.51 µM (inactive)"},
      {"measurement": "GI50", "setting": "[4]", "result": "9.27 µM (inactive)"},
      {"measurement": "GI50", "setting": "[5]", "result": "12.5 µM (inactive)"},
      {"measurement": "GI50", "setting": "[6]", "result": "36.9 µM (inactive)"},
      {"measurement": "GI50", "setting": "[7]", "result": "11.8 µM (inactive)"},
      {"measurement": "GI50", "setting": "[8]", "result": "21.7 µM (inactive)"},
      {"measurement": "GI50", "setting": "[9]", "result": "14.7 µM (inactive)"},
      {"measurement": "GI50", "setting": "[10]", "result": "4.97 µM (inactive)"},
      {"measurement": "GI50", "setting": "[11]", "result": "4.45 µM (inactive)"},
      {"measurement": "GI50", "setting": "[12]", "result": "8.81 µM (inactive)"},
      {"measurement": "GI50", "setting": "[13]", "result": "50.7 µM (inactive)"},
      {"measurement": "GI50", "setting": "[14]", "result": "12.4 µM (inactive)"},
      {"measurement": "GI50", "setting": "[15]", "result": "25 µM (inactive)"},
      {"measurement": "GI50", "setting": "[16]", "result": "16.7 µM (inactive)"},
      {"measurement": "GI50", "setting": "[17]", "result": "12.2 µM (inactive)"},
      {"measurement": "GI50", "setting": "[18]", "result": "18.8 µM (inactive)"},
      {"measurement": "GI50", "setting": "[19]", "result": "14 µM (inactive)"},
      {"measurement": "GI50", "setting": "[20]", "result": "22.4 µM (inactive)"}
    ]}
  ]
}
